Assay results reported in patent EP4640672A1, “ETHYLENEDIAMINE DERIVATIVE, AND PREPARATION METHOD THEREFOR AND USE THEREOF” (Jiangsu Protelight Pharmaceutical & Biotechnology Co., Ltd., priority 2022, dated 2024).

Tests used:
Prostate cancer PC-3 = assay: in vitro anti-tumor activity assay (MTT method); type: cell-based, human; details: Prostate cancer PC-3, culture medium F12, 48 h of culture
Method: (§1) Five human tumor cell lines were selected and cultured in RPMI-1640 (Gibco) or DMEM (Gibco) or GMEM/F12 medium (Gibco) containing 10% inactivated fetal bovine serum, 100 U/ml penicillin and […] streptomycin in an incubator containing 5% CO2 at 37°C. Logarithmically growing cells were seeded in 96-well plates (100 µl per well, 2 x 10^4 cells) using the MTT method, while setting blank control wells. After overnight incubation in the incubator, 100 µl of drug (final concentration 25 µM diluted to 0.39 µM, a total of 7 groups of drug concentrations) was added, an equal volume of culture medium was added in the blank control wells, and 3 duplicate wells were set for each drug concentration. After 48 h of culture, the supernatant was discarded. After washing twice with PBS, 100 µl of MTT (5mg/ml) was added to each well, and the culture was continued for 2 h. Absorbance (A492nm) was measured by a microplate reader to calculate the inhibition rate of the drug on tumor cells.
(§2) IC50 values of compounds on tumor cells were calculated using GraphPad software. […] Table 2. In vitro anti-tumor activity IC50 (µM) of example compounds

Liver cancer HepG2 = assay: in vitro anti-tumor activity assay (MTT method); type: cell-based, human; details: Liver cancer HepG2, culture medium High-sugar DMEM, 48 h of culture
Method: as §1, §2

Prostate cancer LNcap = assay: in vitro anti-tumor activity assay (MTT method); type: cell-based, human; details: culture medium RPMI-1640, 48 h of culture
Method: as §1, §2

Lung cancer A549 = assay: in vitro anti-tumor activity assay (MTT method); type: cell-based, human; details: Lung cancer A549, culture medium F12, 48 h of culture
Method: as §1, §2

Lung cancer H460 = assay: in vitro anti-tumor activity assay (MTT method); type: cell-based, human; details: 48 h of culture
Method: as §1, §2

A549 lung cancer cells = assay: in vivo anti-tumor efficacy assay, subcutaneous tumor model; details: BALB/c nude mice, intraperitoneally 20 mg/kg once per two days, 10 times; for Tumor inhibition rate: calculated from tumor weight; for Mean tumor weight (g) (mean ± SD): weighed on 2nd day after last administration
Method: An in vivo efficacy evaluation model was established in BALB/c nude mice. Each mouse was inoculated subcutaneously with 0.15 mL of tumor cell suspension (A549 lung cancer cells, 2 x 10^7 cells/ml) in the axillary fossa of the right forelimb. When the inoculated cells grew to 300 mm^3, the administration was started. On the 22nd day after inoculation, the mice were intraperitoneally administered (20 mg/kg) once per two days for a total of 10 times. On the 2nd day after the last administration, all the tumor-bearing mice were sacrificed, the tumors were weighed and the tumor inhibition rate was calculated. […] Table 3 Results of in vivo anti-tumor activity of the example compounds

[1] = Homo sapiens, NCI-H460, Lung cancer H460, culture medium High-sugar DMEM

IC50 (Prostate cancer PC-3; Homo sapiens) [nM]	IC50 (Liver cancer HepG2; Homo sapiens) [nM]	IC50 (Prostate cancer LNcap; Homo sapiens) [nM]	IC50 (Lung cancer A549; Homo sapiens) [nM]	IC50 (Lung cancer H460; [1]) [nM]	SMILES	Tumor inhibition rate (A549 lung cancer cells) [%]	Mean tumor weight (g) (mean ± SD) (A549 lung cancer cells)	IC50 (Prostate cancer PC-3) [nM]	IC50 (Liver cancer HepG2) [nM]	IC50 (Prostate cancer LNcap) [nM]	IC50 (Lung cancer A549) [nM]	IC50 (Lung cancer H460; Lung cancer H460, culture medium High-sugar DMEM) [nM]
3310	1090	1020	2340	1580	CC1(C)CC(NC[C@H](Cc2ccc(-c3ccccc3)cc2)NC(=O)C=Cc2ccccc2)CC(C)(C)N1 (stereo in doubt) [Cpd014, (S)-N-(1-([1,1'-biphenyl]-4-yl)-3-((2,2,6,6-tetramethylpiperidin-4-yl)amino)propan-2-yl)cinnamamide]	32.73	0.448 ± 0.128					
					N.N.[Cl][Pt][Cl] [Cisplati num, Cisplatinum]			68600	30800	11600	34000	20400
3030	970	3760	2690	990	CC1(C)CC(NC[C@H](Cc2ccc(OCc3c(Cl)cccc3Cl)cc2)NC(=O)C/C=C/c2ccccc2)CC(C)(C)N1 [Cpd001, (S,E)-N-(1-(4-((2,6-dichlor obenzyl)oxy)phenyl)-3-((2,2,6,6-tetramethylpiperidin-4-yl)amino)propan-2-yl)-4-phenylbut-3-enamide]							
3730	1470	1510	1940	2260	CCC(C(=O)N[C@H](CNC1CC(C)(C)NC(C)(C)C1)Cc1ccc(-c2ccccc2)cc1)C1CCCCC1 (stereo partly drawn) [Cpd009, N-((S)-1-([1,1'-biphenyl]-4-yl)-3-((2,2,6,6-tetramethylpiperidin-4-yl)amino)propan-2-yl)-2-cyclohexylbutanamide]							
					CC(=O)O[C@@]12CO[C@@H]1C[C@H](O)[C@@]1(C)C(=O)[C@H](O)C3=C(C)[C@@H](OC(=O)[C@H](O)[C@@H](NC(=O)OC(C)(C)C)c4ccccc4)C[C@@](O)([C@@H](OC(=O)c4ccccc4)[C@H]21)C3(C)C [Docetaxol, docetaxel]	5.29	0.631 ± 0.231					
4310	1910	1920	4380	2370	CC1(C)CC(NC(=O)C(Cc2ccc(-c3ccccc3)cc2)NC(=O)c2cc3ccccc3n2Cc2ccccc2)CC(C)(C)N1 (stereo not drawn) [PL-AC-15]							
1650	430	3240	3050	1650	COc1ccc2cc(C(C)C(=O)NC(Cc3ccc(-c4ccccc4)cc3)C(=O)NC3CC(C)(C)NC(C)(C)C3)ccc2c1 (stereo not drawn) [PL-AC-202]	19.37	0.537 ± 0.198					
